Measurements taken from US20070066801A1 (priority 2003, published 2007).

Tested on: mutant F. novicida knock-outs
Type: binding, Francisella novicida

TSITPWFFLSRP [phage 4-4-2]
expected binding of phage to knock-out mutants inactivated for the cell surface marker: absence of specific binding
